Measured values from US5512553A, “7-(substituted)-8-(substituted)-9-(substituted amino)-6-demethyl-6-deoxytetracyclines” (American Cyanamid Company, priority 1995, dated 1996).
Structures can show the parent of a compound that is named as a salt.

Legend:
[1] = test system: S. aureus UBMS 88-7 (tetK); experiment: microbe, parasite or virus in culture; format: cell-based; conditions: Staphylococcus aureus, 18 h
Description: (§1) Method for In Vitro Antibacterial Evaluation (Table I)
(§2) The minimum inhibitory concentration (MIC), the lowest concentration of the antibiotic which inhibits growth of the test organism, is determined by the agar dilution method using Muller-Hinton II agar (Baltimore Biological Laboratories). An inoculum density of 1-5×10^5 CFU/ml and an antibiotic concentration (32-≤0.015 μg/ml) is used. The plates are incubated for 18 hours at 35° C. in a forced air incubator. The test organisms comprise strains sensitive to tetracycline and genetically defined strains that are resistant to tetracycline, due to inability to bind bacterial ribosomes (tetM).

[2] = test system: S. aureus UBMS 88-5 (tetM); experiment: microbe, parasite or virus in culture; format: cell-based; conditions: Staphylococcus aureus, 18 h
Description: as §1, §2

E. coli UBMS 88-1 (tetB) = experiment: microbe, parasite or virus in culture; format: cell-based; conditions: Escherichia coli, 18 h
Description: as §1, §2

[3] = test system: S. aureus UBMS 90-2 (tetM); experiment: microbe, parasite or virus in culture; format: cell-based; conditions: Staphylococcus aureus, 18 h
Description: as §1, §2

[4] = test system: S. aureus UBMS 90-1 (tetM); experiment: microbe, parasite or virus in culture; format: cell-based; conditions: Staphylococcus aureus, 18 h
Description: as §1, §2

[5] = test system: tetracycline sensitive and resistant Gram-positive and Gram-negative bacteria; experiment: In vitro antibacterial activity, summary statements of the testing results; format: cell-based
Description: as §1, §2

[6] = test system: S30 extract from derivative of E. coli MRE 600 containing the tetM determinant; experiment: E. coli in vitro cell free protein translation system, TetM S30; format: biochemical; conditions: cell-free extracts from strain MRE600 (tetM)
Source text: (§3) E. coli in Vitro protein Translation System (Table II)
(§4) An in vitro, cell free, protein translation system using extracts from E. coli strain MRE 600 (tetracycline sensitive) and a derivative of MRE 600 containing the tetM determinant has been developed based on literature methods J. M. Pratt, Coupled Transcription-translation in Prokaryotic Cell-free Systems, Transcription and Translation, a Practical Approach, (B. D. Hames and S. J. Higgins, eds) p. 179-209, IRL Press, Oxford-Washington, 1984!.
(§5) Using the system described above, the tetracycline compounds of the present invention are tested for their ability to inhibit protein synthesis in vitro. Briefly, each 10 μl reaction contains S30 extract (a whole extract) made from either tetracycline sensitive cells or an isogenic tetracycline resistant (tetM) strain, low molecular weight components necessary for transcription and translation (i.e., ATP and GTP), a mix of 19 amino acids (no methionine), ^35 S labeled methionine, DNA template (either pBR322 or pUC119), and either DMSO (control) or the novel tetracycline compound to be tested ("novel TC") dissolved in DMSO.
(§6) The reactions are incubated for 30 minutes at 37° C. Timing is initiated with the addition of the S30 extract, the last component to be added. After 30 minutes, 2.5 μl of the reaction is removed and mixed with 0.5 ml of 1N NaOH to destroy RNA and tRNA. Two to three ml of 25% trichloroacetic acid is added and the mixture incubated at room temperature for 15 minutes. The trichloroacetic acid precipitated material is collected on Whatman GF/C filters and washed with a solution of 10% trichloroacetic acid. The filters are dried and the retained radioactivity, representing incorporation of ^35 S-methionine into polypeptides, is counted using standard liquid scintillation methods.
(§7) The percent inhibition (P.I.) of protein synthesis is determined to be: [formula]

[7] = test system: S30 extract from E. coli strain MRE 600 (tetracycline sensitive); experiment: E. coli in vitro cell free protein translation system, Wild Type S30; format: biochemical; conditions: for % Inhibition Wild Type S30: 35S-methionine incorporation, 30 minutes at 37° C.
Source text: as §3, §4, §5, §6, §7

[8] = test system: E. coli UBMS 89-2 (sensitive); experiment: In vitro antibacterial evaluation, MIC by agar dilution; format: cell-based; conditions: Escherichia coli, Muller-Hinton II agar, 18 hours at 35° C.
Description: as §1, §2

E. coli ATCC 25922 = experiment: as above; format: cell-based; conditions: Escherichia coli, ATCC25922; agar dilution, Muller-Hinton II agar, 18 hours at 35° C.; E. coli ATCC 25922; read-out: MIC
Description: as §1, §2

Enteroc. spp. 12201 = experiment: as above; format: cell-based; conditions: agar dilution, Muller-Hinton II agar, 18 hours at 35° C.; Enteroc. spp. 12201; read-out: MIC
Description: as §1, §2

[9] = test system: S. aureus ATCC 29213 (sensitive); experiment: as above; format: cell-based; conditions: Staphylococcus aureus, ATCC29213; agar dilution, Muller-Hinton II agar, 18 hours at 35° C.; S. aureus ATCC 29213 (sensitive); read-out: MIC
Description: as §1, §2

[10] = test system: S. aureus SMITH (MP) (sensitive); experiment: as above; format: cell-based; conditions: Staphylococcus aureus; agar dilution, Muller-Hinton II agar, 18 hours at 35° C.; S. aureus SMITH (MP) (sensitive); read-out: MIC
Description: as §1, §2

[11] = test system: S. aureus IVES 1983 (MP) (meth. resistant); experiment: as above; format: cell-based; conditions: Staphylococcus aureus; agar dilution, Muller-Hinton II agar, 18 hours at 35° C.; S. aureus IVES 1983 (MP) (meth. resistant); read-out: MIC
Description: as §1, §2

S. faecal. ATCC 29212 = experiment: as above; format: cell-based; conditions: agar dilution, Muller-Hinton II agar, 18 hours at 35° C.; S. faecal. ATCC 29212; read-out: MIC
Description: as §1, §2

[12] = test system: E. coli UBMS 88-2 (sensitive); experiment: as above; format: cell-based; conditions: Escherichia coli, 18 h
Description: as §1, §2

[13] = test system: S. aureus UBMS 90-3 (sensitive); experiment: as above; format: cell-based; conditions: Staphylococcus aureus; agar dilution, Muller-Hinton II agar, 18 hours at 35° C.; S. aureus UBMS 90-3 (sensitive); read-out: MIC
Description: as §1, §2

[14] = test system: S. aureus UBMS 88-4 (sensitive); experiment: as above; format: cell-based; conditions: Staphylococcus aureus; agar dilution, Muller-Hinton II agar, 18 hours at 35° C.; S. aureus UBMS 88-4 (sensitive); read-out: MIC
Description: as §1, §2

CN(C)[C@@H]1C(O)=C(C(N)=O)C(=O)[C@@]2(O)C(O)=C3C(=O)c4c(cc(Cl)c(NC=O)c4O)CC3CC12 (stereo partly drawn) [A, 8-Chloro-4-(dimethylamino)-9-(formylamino)-1,4,4a,5,5a,6,11,12a-octahydro-3,10,12,12a-tetrahydroxy-1,11-dioxo-2-naphthacenecarboxamide hydrochloride or sulfate] was tested, and the MIC [1] was 16 µg/mL, the MIC [2] was 0.12 µg/mL and the MIC (E. coli UBMS 88-1 (tetB)) was 32 µg/mL. For the same compound, the MIC [3] was 0.03 µg/mL, the MIC [4] was 0.25 µg/mL and the “in vitro activity, in words” value ([5]; tetracycline resistant strains containing tetM (S. aureus UBMS 88-5, 90-1 and 90-2)) was “good in vitro activity”. The “in vitro activity compared with minocycline, in words” value ([5]; tetracycline susceptible strains) was “equally as effective as minocycline”, the “inhibition of protein synthesis, in words” value [6] was “effectively inhibited” and the “% Inhibition Wild Type S30” value ([7]; Conc. 0.3 mg/ml) was 98%. For the same compound, the “% Inhibition Wild Type S30” value ([7]; Conc. 1.0) was 93%, the “inhibition of protein synthesis, in words” value ([7]; cell-free extracts from tetracycline susceptible strain MRE600) was “effectively inhibited” and the MIC [8] was 0.25 µg/mL. The MIC (E. coli ATCC 25922) was 0.12 µg/mL, the MIC (Enteroc. spp. 12201) was 0.5 µg/mL and the MIC [9] was under 0.015 µg/mL. For the same compound, the MIC [10] was under 0.015 µg/mL, the MIC [11] was 32 µg/mL and the MIC (S. faecal. ATCC 29212) was under 0.015 µg/mL. It also gave an MIC [12] of 0.12 µg/mL, an MIC [13] of under 0.015 µg/mL and an MIC [14] of under 0.015 µg/mL.
